Source: US8071763B2, “Methods for treatment of nocturia” (Daiichi Sankyo Company, Limited, priority 2002, dated 2011)
Marks after values point to notes of the source that are not given here.

System: patients with nocturia
Test: Non-randomized trial treatment with loxoprofen in patients with nocturia; voids/night outcome assessed as excellent, improved, unchanged or worsened
Format: in vivo, human
Experimental: One hundred forty one patients (135 men) aged 49 to 89 (mean 70.5) years with LUTS and =2 voids per night were enrolled in the study. Their main diseases were BPH (n=93), prostate cancer (n=24) and neurogenic bladder (NB) (n=13); 11 had other diseases. […] Patients who had asthma, gastrointestinal disorders, renal dysfunction and allergies to loxoprofen were excluded. Patients took a single 60 mg loxoprofen tablet prior to sleeping at night for 4 to 14 days initially concurrently with their treatments for their main diseases. Numbers of voids/night as reported by each patient were evaluated and treatment outcome was assessed as either excellent (nocturia disappeared or decreased by =2 voids/night), improved (nocturia decreased by 1 void/night), unchanged or worsened (nocturia increased).

[1] = 60 mg prior to sleeping, 108 patients who did not respond to anticholinergic drugs
[2] = 60 mg prior to sleeping, Antidiuretic hormone non-responder, 3 patients
[3] = 60 mg prior to sleeping, Antidiuretic hormone responder, 6 patients
[4] = 60 mg prior to sleeping, BPH, 93 patients
[5] = 60 mg prior to sleeping, BPH, 93 patients, listed as Loxoprofen
[6] = 60 mg prior to sleeping, Female, 6
[7] = 60 mg prior to sleeping, Insomnia, 20 patients
[8] = 60 mg prior to sleeping, Male, 135
[9] = 60 mg prior to sleeping, Neurogenic bladder, 13 patients
[10] = 60 mg prior to sleeping, Neurogenic bladder, 13 patients, listed as Loxoprofen
[11] = 60 mg prior to sleeping, Nocturnal polyuria, 7 patients
[12] = 60 mg prior to sleeping, Post-TURP, 18 patients
[13] = 60 mg prior to sleeping, Post-thermotherapy, 19 patients
[14] = 60 mg prior to sleeping, Prostate cancer, 24 patients
[15] = 60 mg prior to sleeping, Prostate cancer, 24 patients, listed as Loxoprofen
[16] = 60 mg prior to sleeping, Prostate cancer, hormone therapy, 15 patients
[17] = 60 mg prior to sleeping, Prostate cancer, post-prostatectomy (radical), 5 patients
[18] = 60 mg prior to sleeping, Prostate cancer, post-radiation, 4 patients
[19] = 60 mg prior to sleeping, Prostatodynia, 5 patients
[20] = 60 mg prior to sleeping, Urinary frequency with UUI, 10 patients
[21] = 60 mg prior to sleeping, Urinary frequency without UUI, 9 patients
[22] = 60 mg prior to sleeping, aged 49 to 59 years
[23] = 60 mg prior to sleeping, aged 60 to 69 years
[24] = 60 mg prior to sleeping, aged 70 to 79 years
[25] = 60 mg prior to sleeping, aged 80 to 86 years
[26] = 60 mg prior to sleeping, frequency at baseline 2 and 2-3, 56 patients
[27] = 60 mg prior to sleeping, frequency at baseline 3-4, 59 patients
[28] = 60 mg prior to sleeping, frequency at baseline 4-5, 15 patients
[29] = 60 mg prior to sleeping, frequency at baseline >5, 11 patients
[30] = 60 mg prior to sleeping, non-responders to Anticholinergics, 32 patients
[31] = 60 mg prior to sleeping, non-responders to Hypnotics, 42 patients
[32] = 60 mg prior to sleeping, non-responders to TCA (tricyclic antidepressants), 76 patients

**Q.** What does the source list for CC(C(=O)O)c1ccc(CC2CCCC2=O)cc1 (centres unmarked) [loxoprofen, loxoprofen sodium]?
**A.** Onset of changes in patients' symptoms (60 mg prior to sleeping): starting from the first night of therapy; Excellent responder rate (60 mg prior to sleeping, 85 patients with more frequent nocturia than 2 to 3 episodes at baseline): 46%; Excellent rate [1]: 44%; Improved rate [1]: 38%; Nocturia improved or disappeared, % of patients overall (60 mg prior to sleeping, 141 patients): 72%; Improved, % of patients [2]: (33%); Improved, no. of patients [2]: 1; Unchanged, % of patients [2]: 67%; Unchanged, no. of patients [2]: 2; Excellent, % of patients [3]: (17%); Excellent, no. of patients [3]: 1; Improved, % of patients [3]: (67%); Improved, no. of patients [3]: 4; Unchanged, % of patients [3]: 17%; Unchanged, no. of patients [3]: 1; Excellent, % of patients [4]: (39%); Excellent, no. of patients [4]: 36^; Improved, % of patients [4]: (34%); Improved, no. of patients [4]: 32^; Unchanged, % of patients [4]: (23%); Unchanged, no. of patients [4]: 21^; Worsened, % of patients [4]: (4%); Worsened, no. of patients [4]: 4; Excellent, % of patients [5]: 39%; Improved, % of patients [5]: 34%; Excellent, % of patients [6]: (33%); Excellent, no. of patients [6]: 2; Improved, % of patients [6]: (33%); Improved, no. of patients [6]: 2; Unchanged, % of patients [6]: (33%); Unchanged, no. of patients [6]: 2; Excellent, % of patients [7]: (35%); Excellent, no. of patients [7]: 7^; Improved, % of patients [7]: (40%); Improved, no. of patients [7]: 8^; Unchanged, % of patients [7]: (20%); Unchanged, no. of patients [7]: 4^; Worsened, % of patients [7]: (5%); Worsened, no. of patients [7]: 1; Excellent, % of patients (60 mg prior to sleeping, Insomnia, 20 patients, listed as Loxoprofen): 35%; Excellent, no. of patients (60 mg prior to sleeping, Interstitial cystitis, 2 patients): 2^¶; Excellent, % of patients [8]: (36%); Excellent, no. of patients [8]: 49; Improved, % of patients [8]: (36%); Improved, no. of patients [8]: 48; Unchanged, % of patients [8]: (24%); Unchanged, no. of patients [8]: 32; Worsened, % of patients [8]: (4%); Worsened, no. of patients [8]: 6; Excellent, % of patients [9]: (69%); Excellent, no. of patients [9]: 9^‡; Improved, % of patients [9]: (8%); Improved, no. of patients [9]: 1^¶; Unchanged, % of patients [9]: (15%); Unchanged, no. of patients [9]: 2^¶; Worsened, % of patients [9]: (8%); Worsened, no. of patients [9]: 1; Excellent, % of patients [10]: 69%; Improved, % of patients [10]: 8%; Excellent, % of patients [11]: (14%); Excellent, no. of patients [11]: 1^; Improved, % of patients [11]: (71%); Improved, no. of patients [11]: 5^; Unchanged, % of patients [11]: (14%); Unchanged, no. of patients [11]: 1^; Excellent, % of patients (60 mg prior to sleeping, Nocturnal polyuria, 7 patients, listed as Loxoprofen): 14%; Excellent, no. of patients [12]: 8; Improved, % of patients [12]: (27%); Improved, no. of patients [12]: 5; Unchanged, % of patients [12]: 22%; Unchanged, no. of patients [12]: 4; Worsened, % of patients [12]: 6%; Worsened, no. of patients [12]: 1; Excellent, no. of patients [13]: 8; Improved, % of patients [13]: (26%); Improved, no. of patients [13]: 5; Unchanged, % of patients [13]: 32%; Unchanged, no. of patients [13]: 6; Excellent, % of patients [14]: (29%); Excellent, no. of patients [14]: 7^; Improved, % of patients [14]: (33%); Improved, no. of patients [14]: 8^; Unchanged, % of patients [14]: (33%); Unchanged, no. of patients [14]: 8^; Worsened, % of patients [14]: (4%); Worsened, no. of patients [14]: 1; Excellent, % of patients [15]: 29%; Improved, % of patients [15]: 33%; Excellent, no. of patients [16]: 5^; Improved, no. of patients [16]: 3^; Unchanged, no. of patients [16]: 6^; Worsened, no. of patients [16]: 1; Excellent, no. of patients [17]: 1^; Improved, no. of patients [17]: 2^; Unchanged, no. of patients [17]: 2^; Excellent, no. of patients [18]: 1^; Improved, no. of patients [18]: 3^; Excellent, % of patients [19]: (20%); Excellent, no. of patients [19]: 1^; Improved, % of patients [19]: (40%); Improved, no. of patients [19]: 2^; Unchanged, % of patients [19]: (20%); Unchanged, no. of patients [19]: 1^; Worsened, % of patients [19]: (20%); Worsened, no. of patients [19]: 1; Worsened, no. of patients (60 mg prior to sleeping, Total 141): 6; Excellent, % of patients [20]: (20%); Excellent, no. of patients [20]: 2^; Improved, % of patients [20]: (50%); Improved, no. of patients [20]: 5^†; Unchanged, % of patients [20]: (30%); Unchanged, no. of patients [20]: 3^¶; Excellent, % of patients (60 mg prior to sleeping, Urinary frequency with UUI, 10 patients, listed as Loxoprofen): 20%; Excellent, % of patients [21]: (44%); Excellent, no. of patients [21]: 4^¶; Improved, % of patients [21]: (22%); Improved, no. of patients [21]: 2^; Unchanged, % of patients [21]: (22%); Unchanged, no. of patients [21]: 2^¶; Worsened, % of patients [21]: (11%); Worsened, no. of patients [21]: 1; Excellent, % of patients (60 mg prior to sleeping, Urinary frequency without UUI, 9 patients, listed as Loxoprofen): 44%; Excellent responses, % of patients [22]: 50%; Excellent responses, patients/group size [22]: 4/8; Excellent responses, % of patients [23]: 40%; Excellent responses, patients/group size [23]: 17/43; Excellent responses, % of patients [24]: 35%; Excellent responses, patients/group size [24]: 23/65; Excellent responses, % of patients [25]: 28%; Excellent responses, patients/group size [25]: 7/25; Excellent, % of patients [26]: (21%); Excellent, no. of patients [26]: 12*^; Improved, % of patients [26]: (41%); Improved, no. of patients [26]: 23^†; Unchanged, % of patients [26]: (34%); Unchanged, no. of patients [26]: 19^†; Worsened, % of patients [26]: (4%); Worsened, no. of patients [26]: 2; Excellent, % of patients (60 mg prior to sleeping, frequency at baseline 2 and 2-3, 56 patients, listed as Loxoprofen): 21%; Excellent, % of patients [27]: (47%); Excellent, no. of patients [27]: 28^†; Improved, % of patients [27]: (31%); Improved, no. of patients [27]: 18^†; Unchanged, % of patients [27]: (17%); Unchanged, no. of patients [27]: 10^†; Worsened, % of patients [27]: (5%); Worsened, no. of patients [27]: 3; Excellent, % of patients [28]: (40%); Excellent, no. of patients [28]: 6^; Improved, % of patients [28]: (40%); Improved, no. of patients [28]: 6^; Unchanged, % of patients [28]: (20%); Unchanged, no. of patients [28]: 3^; Excellent, % of patients [29]: (45%); Excellent, no. of patients [29]: 5^†; Improved, % of patients [29]: (27%); Improved, no. of patients [29]: 3^; Unchanged, % of patients [29]: (18%); Unchanged, no. of patients [29]: 2^; Worsened, % of patients [29]: (5%); Worsened, no. of patients [29]: 1; Excellent, % of patients [30]: (44%); Excellent, no. of patients [30]: 14; Improved, % of patients [30]: (38%); Improved, no. of patients [30]: 12; Unchanged, % of patients [30]: 19%; Unchanged, no. of patients [30]: 6; Worsened, % of patients [30]: 3%; Worsened, no. of patients [30]: 1; Excellent, no. of patients [31]: 13; Improved, no. of patients [31]: 16; Unchanged, % of patients [31]: 26%; Unchanged, no. of patients [31]: 11; Worsened, % of patients [31]: 5%; Worsened, no. of patients [31]: 2; Excellent, % of patients [32]: (39%); Excellent, no. of patients [32]: 30; Improved, % of patients [32]: (37%); Improved, no. of patients [32]: 28; Unchanged, % of patients [32]: 22%; Unchanged, no. of patients [32]: 17; Worsened, % of patients [32]: 5%; Worsened, no. of patients [32]: 4; Excellent effects, patients (60 mg prior to sleeping, patients who previously responded or were refractory to antidiuretic hormone): one of nine patients; Side effects such as dry mouth, constipation and habituation (human, in vivo): does not produce side effects; Quality of life (patients whose nocturia improved): noticeable improvements in their quality of life; Effect on voiding power (patients with BOO): does not decrease voiding power; Time to first voiding (some patients of the unchanged group): delayed by several hours
